Assay results reported in patent US8017606B2, “Quinoline derivatives as antibacterial agents” (Janssen Pharmaceutica NV, priority 2005, dated 2011).
Converted amounts (≈) assume the structure as drawn. Counter-ions that a name gives are not always drawn.

Experiments:
[1] = tested on: Bacillus subtilis (ATCC43639); experiment: Microtitre plate assay, IC90 determination; assay type: cell-based; conditions: 90% inhibitory concentration for bacterial growth, 37° C., resazurin fluorescence, read-out: IC90 (μg/ml) BSU 43639
Description: (§1) The bacteria used in this study were grown overnight in flasks containing 100 ml Mueller-Hinton Broth (Becton Dickinson—cat. no. 275730) in sterile de-ionized water, with shaking, at 37° C. Stocks (0.5 ml/tube) were stored at −70° C. until use. Bacteria titrations were performed in microtiter plates and colony forming units (CFUs) were determined. In general, an inoculum level of approximately 100 CFUs was used for susceptibility testing.
(§2) Anti Bacterial Susceptibility Testing: IC90 Determination
(§3) Flat-bottom, sterile 96-well plastic microtiter plates were filled with 180 μl of sterile deionized water, supplemented with 0.25% BSA. Subsequently, stock solutions (7.8×final test concentration) of compounds were added in 45 μl volumes in column 2 Serial five-fold dilutions (45 μl in 180 μl) were made directly in the microtiter plates from column 2 to reach column 11. Untreated control samples with (column 1) and without (column 12) inoculum were included in each microtiter plate. Depending on the bacteria type, approximately 10 to 60 CFU per well of bacteria inoculum (100 TCID50), in a volume of 100 μl in 2.8× Mueller-Hinton broth medium, was added to the rows A to H, except column 12. The same volume of broth medium without inoculum was added to column 12 in row A to H. The cultures were incubated at 37° C. for 24 hours under a normal atmosphere (incubator with open air valve and continuous ventilation). At the end of incubation, one day after inoculation, the bacterial growth was quantitated fluorometrically. Therefore resazurin (0.6 mg/ml) was added in a volume of 20 μl to all wells […], and the plates were re-incubated overnight. A change in colour from blue to pink indicated the growth of bacteria.
(§4) The fluorescence was read in a computer-controlled fluorometer (Cytofluor Biosearch) at an excitation wavelength of 530 nm and an emission wavelength of 590 nm. The % growth inhibition achieved by the compounds was calculated according to standard methods. The IC90 (expressed in μg/ml) was defined as the 90% inhibitory concentration for bacterial growth.

[2] = tested on: Enterococcus faecalis (ATCC29212); experiment: Microtitre plate assay, IC90 determination; assay type: cell-based; conditions: 90% inhibitory concentration for bacterial growth, 37° C., resazurin fluorescence, read-out: IC90 (μg/ml) EFA 29212
Description: as §1, §2, §3, §4

[3] = tested on: Listeria monocytogenes (ATCC49594); experiment: Microtitre plate assay, IC90 determination; assay type: cell-based; conditions: 90% inhibitory concentration for bacterial growth, 37° C., resazurin fluorescence, read-out: IC90 (μg/ml) LMO 49594
Description: as §1, §2, §3, §4

[4] = tested on: Pseudomonas aeruginosa (ATCC27853); experiment: Microtitre plate assay, IC90 determination; assay type: cell-based; conditions: 90% inhibitory concentration for bacterial growth, 37° C., resazurin fluorescence, read-out: IC90 (μg/ml) PAE 27853
Description: as §1, §2, §3, §4

[5] = tested on: Staphylococcus aureus (ATCC25923); experiment: Microtitre plate assay, IC90 determination; assay type: cell-based; conditions: 90% inhibitory concentration for bacterial growth, 37° C., resazurin fluorescence, read-out: IC90 (μg/ml) STA 25923
Description: as §1, §2, §3, §4

[6] = tested on: Staphylococcus aureus (ATCC29213); experiment: Microtitre plate assay, IC90 determination; assay type: cell-based; conditions: 90% inhibitory concentration for bacterial growth, 37° C., resazurin fluorescence, read-out: IC90 (μg/ml) STA 29213
Description: as §1, §2, §3, §4

[7] = tested on: Staphylococcus aureus (ATCC43300); experiment: Microtitre plate assay, IC90 determination; assay type: cell-based; conditions: 90% inhibitory concentration for bacterial growth, 37° C., resazurin fluorescence, read-out: IC90 (μg/ml) STA 43300
Description: as §1, §2, §3, §4

[8] = tested on: Streptococcus mutans (ATCC33402); experiment: Microtitre plate assay, IC90 determination; assay type: cell-based; conditions: 90% inhibitory concentration for bacterial growth, 37° C., resazurin fluorescence, read-out: IC90 (μg/ml) SMU 33402
Description: as §1, §2, §3, §4

[9] = tested on: Streptococcus pneumoniae (ATCC6305); experiment: Microtitre plate assay, IC90 determination; assay type: cell-based; conditions: 90% inhibitory concentration for bacterial growth, 37° C., resazurin fluorescence, read-out: IC90 (μg/ml) SPN 6305
Description: as §1, §2, §3, §4

[10] = tested on: Streptococcus pyogens (ATCC8668); experiment: Microtitre plate assay, IC90 determination; assay type: cell-based; conditions: 90% inhibitory concentration for bacterial growth, 37° C., resazurin fluorescence, read-out: IC90 (μg/ml) SPY 8668
Description: as §1, §2, §3, §4

[11] = tested on: methicilline resistant Staphylococcus aureus (MRSA) (a clinical isolate from the University of Antwerp); experiment: Microtitre plate assay, IC90 determination; assay type: cell-based; conditions: 90% inhibitory concentration for bacterial growth, 37° C., resazurin fluorescence, read-out: IC90 (μg/ml) STA RMETHIC
Description: as §1, §2, §3, §4

[12] = tested on: Enterococcus faecalis (ATCC14506); experiment: Microtitre plate assay, IC90 determination; assay type: cell-based; conditions: 90% inhibitory concentration for bacterial growth, 37° C., resazurin fluorescence, read-out: IC90 (μg/ml) EFA 14506
Description: as §1, §2, §3, §4

| IC90 [1] | IC90 [2] | IC90 [3] | IC90 [4] | IC90 [5] | IC90 [6] | IC90 [7] | IC90 [8] | IC90 [9] | IC90 [10] | IC90 [12] | melting point | SMILES | IC90 [11] |
| --- | --- | --- | --- | --- | --- | --- | --- | --- | --- | --- | --- | --- | --- |
| 11.6 µg/mL (≈ 25.1 µM) | 11.6 µg/mL (≈ 25.1 µM) | 11.6 µg/mL (≈ 25.1 µM) | 9.2 µg/mL (≈ 19.9 µM) | 11.6 µg/mL (≈ 25.1 µM) | 11.6 µg/mL (≈ 25.1 µM) | 9.2 µg/mL (≈ 19.9 µM) | 9.2 µg/mL (≈ 19.9 µM) | 5.2 µg/mL (≈ 11.2 µM) | 9.2 µg/mL (≈ 19.9 µM) |  |  | COc1nc2cccc(C(O)(CCN(C)C)c3ccc4ccccc4c3)c2cc1-c1ccccc1 (stereo not shown) [Compound 3] | 11.6 µg/mL (≈ 25.1 µM) |
| 10.5 µg/mL (≈ 20 µM) | 10.5 µg/mL (≈ 20 µM) | 10.5 µg/mL (≈ 20 µM) | 10.5 µg/mL (≈ 20 µM) | 11.7 µg/mL (≈ 22.3 µM) | 10.5 µg/mL (≈ 20 µM) | 10.5 µg/mL (≈ 20 µM) | 10.5 µg/mL (≈ 20 µM) | 10.5 µg/mL (≈ 20 µM) | 10.5 µg/mL (≈ 20 µM) | 10.5 µg/mL (≈ 20 µM) |  | CN(C)CCC(O)(c1cccs1)c1cc(Br)cc2cc(Cc3ccccc3)c(N(C)C)nc12 (stereo not shown) [Compound 46] | 9.3 µg/mL (≈ 17.7 µM) |
| 50.4 µg/mL (≈ 100 µM) | 50.4 µg/mL (≈ 100 µM) | 50.4 µg/mL (≈ 100 µM) | 40 µg/mL (≈ 79.4 µM) | 50.4 µg/mL (≈ 100 µM) | 40 µg/mL (≈ 79.4 µM) |  | 40 µg/mL (≈ 79.4 µM) | 50.4 µg/mL (≈ 100 µM) | 40 µg/mL (≈ 79.4 µM) |  | 180 °C | COc1nc2c(C(O)(CCN(C)C)c3ccccc3)cc(-c3cccnc3)cc2cc1Cc1ccccc1 (stereo not shown) [Compound 66] | 50.4 µg/mL (≈ 100 µM) |
| 12.8 µg/mL (≈ 25.2 µM) | 12.8 µg/mL (≈ 25.2 µM) | 12.8 µg/mL (≈ 25.2 µM) | 12.8 µg/mL (≈ 25.2 µM) | 12.8 µg/mL (≈ 25.2 µM) | 12.8 µg/mL (≈ 25.2 µM) |  |  | 12.8 µg/mL (≈ 25.2 µM) | 12.8 µg/mL (≈ 25.2 µM) |  | 173 °C | CN(C)CCC(O)(Cc1c(-c2ccccc2)c(-c2ccccc2)nc2ccccc12)c1cc(F)cc(F)c1 (stereo not shown) [Compound 21] | 12.8 µg/mL (≈ 25.2 µM) |
| 9.2 µg/mL (≈ 19.9 µM) | 11.6 µg/mL (≈ 25.1 µM) | 11.6 µg/mL (≈ 25.1 µM) | 9.2 µg/mL (≈ 19.9 µM) | 11.6 µg/mL (≈ 25.1 µM) | 9.2 µg/mL (≈ 19.9 µM) | 9.2 µg/mL (≈ 19.9 µM) | 9.2 µg/mL (≈ 19.9 µM) | 11.6 µg/mL (≈ 25.1 µM) | 9.2 µg/mL (≈ 19.9 µM) | 8.2 µg/mL (≈ 17.7 µM) |  | COc1nc2cccc(C(O)(CCN(C)C)c3cccc4ccccc34)c2cc1-c1ccccc1 (stereo not shown) [Compound 2] | 11.6 µg/mL (≈ 25.1 µM) |
|  |  |  |  |  |  |  |  |  |  |  | 136 °C | CN(C)CCC(O)(c1cc(F)cc(F)c1)c1cccc2nc(N(C)C)c(-c3ccccc3)cc12 (stereo not shown) (as salt: salt) [Compound 45] |  |
| 60.3 µg/mL (≈ 100 µM) | 60.3 µg/mL (≈ 100 µM) | 60.3 µg/mL (≈ 100 µM) | 47.9 µg/mL (≈ 79.5 µM) | 53.7 µg/mL (≈ 89.1 µM) | 53.7 µg/mL (≈ 89.1 µM) |  | 47.9 µg/mL (≈ 79.5 µM) | 60.3 µg/mL (≈ 100 µM) | 47.9 µg/mL (≈ 79.5 µM) |  | 131 °C | CN(C)CCC(O)(c1ccccc1)c1cc(Br)cc2cc(Cc3ccccc3)c(OCCN3CCCCC3)nc12 (stereo not shown) [Compound 48] | 60.3 µg/mL (≈ 100 µM) |
|  | 10.5 µg/mL (≈ 19.9 µM) | 10.5 µg/mL (≈ 19.9 µM) | 10.5 µg/mL (≈ 19.9 µM) | 11.8 µg/mL (≈ 22.4 µM) | 10.5 µg/mL (≈ 19.9 µM) | 13.3 µg/mL (≈ 25.2 µM) | 10.5 µg/mL (≈ 19.9 µM) | 13.3 µg/mL (≈ 25.2 µM) | 10.5 µg/mL (≈ 19.9 µM) | 11.8 µg/mL (≈ 22.4 µM) |  | COc1nc2c(C(O)(CCN(C)C)c3cc(F)cc(F)c3)cc(Br)cc2cc1-c1ccccc1 (stereo not shown) [Compound 9] | 11.8 µg/mL (≈ 22.4 µM) |
|  | 10.2 µg/mL (≈ 19.9 µM) | 10.2 µg/mL (≈ 19.9 µM) | 12.9 µg/mL (≈ 25.2 µM) | 11.5 µg/mL (≈ 22.5 µM) | 12.9 µg/mL (≈ 25.2 µM) | 12.9 µg/mL (≈ 25.2 µM) | 10.2 µg/mL (≈ 19.9 µM) | 11.5 µg/mL (≈ 22.5 µM) | 10.2 µg/mL (≈ 19.9 µM) |  |  | COc1nc2c(C(O)(CCN(C)C)c3cccs3)cc(Br)cc2cc1Cc1ccccc1 (stereo not shown) [Compound 10] | 10.2 µg/mL (≈ 19.9 µM) |
| 11.5 µg/mL (≈ 19.9 µM) | 14.5 µg/mL (≈ 25.1 µM) | 14.5 µg/mL (≈ 25.1 µM) | 14.5 µg/mL (≈ 25.1 µM) | 14.5 µg/mL (≈ 25.1 µM) | 14.5 µg/mL (≈ 25.1 µM) |  | 11.5 µg/mL (≈ 19.9 µM) | 14.5 µg/mL (≈ 25.1 µM) | 11.5 µg/mL (≈ 19.9 µM) | 46 µg/mL (≈ 79.5 µM) |  | CN(C)CCC(O)(c1cccc2ccccc12)c1cc(Br)cc2cc(-c3ccccc3)c(-n3cncn3)nc12 (stereo not shown) [Compound 33] | 14.5 µg/mL (≈ 25.1 µM) |
